Data set [1] deals with T1, O-acetylserine sulfhydrylase (Mycobacterium tuberculosis, UniProt P9WP55).
Description: Inhibition of Mycobacterium tuberculosis N-terminal His-6-tagged recombinant CysK1 expressed in Escherichia coli BL21 (DE3) after 20 mins by spectrophotometric analysis
The target in data set [2] is O-acetylserine sulfhydrylase (Mycobacterium tuberculosis) (UniProt P9WP55). The conditions noted are these: at 500 nM.
Description: Inhibition of Mycobacterium tuberculosis N-terminal His-6-tagged recombinant CysK1 expressed in Escherichia coli BL21 (DE3) at 500 nM after 20 mins by spectrophotometric analysis
Data set [3] has the same target.
Data set [4] has the same target. This is another data set of the same source.
Data set [5] in a line: Lipophilicity, log P of the compound. The format is physicochemical. The following applies: octanol/water.
Data set [6] deals with T1, O-acetylserine sulfhydrylase. Kind of data set: Inhibition of Mycobacterium tuberculosis CysK1.

Data on 16 compounds can be found in ChEMBL document CHEMBL2417551, “Structure-guided design of novel thiazolidine inhibitors of O-acetyl serine sulfhydrylase from Mycobacterium tuberculosis” (J Med Chem, 2013).

One may read the IC50 as the concentration that gives 50% inhibition. A word on the inhibition: it is the drop in the measured response relative to a control, in per cent. Lower therefore signals a weak effect. The logP is the decadic logarithm of the partition coefficient of the neutral form, usually between octanol and water. A high value points to higher lipophilicity.

The structures appear in SMILES notation.

`C=CCN1C(=O)/C(=C/c2ccc(O)cc2)S/C1=N\c1cccc(C(=O)O)c1` gave an IC50 in data set [1] of 110 nM. Moreover, the inhibition in data set [2] turned out to be 92.3%.
Compound `COc1ccc(/C=C2\S/C(=N\c3cccc(C(=O)O)c3)N(C)C2=O)cc1` showed an IC50 in data set [1] of 33.9 nM. Also, in data set [2], the inhibition is 88.6%.
As for `COc1ccccc1/C=C1\S/C(=N\c2cccc(C(=O)O)c2)N(C)C1=O`, the IC50 in data set [1] came out at 160 nM. Also, the inhibition in data set [2] turned out to be 96.9%.
Consider `CC(C)N1C(=O)/C(=C/c2ccc(O)cc2)S/C1=N\c1cccc(C(=O)O)c1`, for which the IC50 in data set [1] stood at 141 nM. The inhibition in data set [2] was 90.3%.
Take `CCCN1C(=O)/C(=C/c2ccc(O)cc2)S/C1=N\c1cccc(C(=O)O)c1`: half-maximal inhibition in data set [1] (IC50) required 95.1 nM. The inhibition in data set [2] came to 95.1%.
The compound `COc1cc(/C=C2\S/C(=N\c3cccc(C(=O)O)c3)N(C)C2=O)ccc1O` registered an IC50 in data set [1] of 60 nM. The same compound showed an inhibition in data set [2] of 87.5%.
In the same order, the values of `CN1C(=O)/C(=C/c2ccc(N(C)C)cc2)S/C1=N\c1cccc(C(=O)O)c1` are 37 nM and 93.4%.
In the same order, the values of `CCN1C(=O)/C(=C/c2ccc(O)cc2)S/C1=N\c1cccc(C(=O)O)c1` are 101 nM and 90.2%.
In the same order, the values of `COc1cc(/C=C2\S/C(=N\c3cccc(C(=O)O)c3)N(C)C2=O)cc(OC)c1OC` are 69.9 nM and 89.4%.
On to `CN1C(=O)/C(=C/c2ccc(O)cc2)S/C1=N\c1cccc(C(=O)O)c1`, for which the IC50 in data set [1] stood at 62.6 nM. The compound further displayed an inhibition in data set [2] of 92.6%.
Compound `CN1C(=O)/C(=C/c2ccc(F)cc2)S/C1=N\c1cccc(C(=O)O)c1` registered an IC50 in data set [1] of 19 nM. Moreover, the figures for the Ratio IC50 in data set [3] and in data set [4] were 150 and 5, respectively. Moreover, the inhibition in data set [2] was found to be 89.5%. The compound further came in with a logP in data set [5] of 2.7.
Turning to `CN1C(=O)/C(=C/c2ccccc2OCC(=O)O)S/C1=N\c1cccc(C(=O)O)c1`, the IC50 in data set [6] amounted to 103 nM.
On to `CCN1C(=O)/C(=C/c2ccc(OC)c(OC)c2)S/C1=N\c1cccc(C(=O)O)c1`, for which 56 nM corresponded to half-maximal inhibition in data set [1] (IC50). Besides, in data set [2], the inhibition is 90.9%.
Regarding `CC[C@H](C)[C@H](NC(=O)[C@H](CO)NC(=O)[C@H](Cc1ccccc1)NC(=O)[C@@H](N)CC(=O)O)C(=O)O`, the IC50 in data set [6] was 2900 nM.
`COc1ccc(/C=C2\S/C(=N\c3cccc(C(=O)O)c3)N(C)C2=O)cc1OC` yielded an IC50 in data set [1] of 54.3 nM. The compound also had an inhibition in data set [2] of 89.7%.
In the same order, the values of `CN1C(=O)/C(=C/c2ccc(OCc3ccccc3)cc2)S/C1=N\c1cccc(C(=O)O)c1` are 25.6 nM and 91.5%.
